Consider four compounds from patent US8362263B2 (CJ Cheiljedang Corporation, priority 2006, dated 2013).

Structures can show the parent of a compound that is named as a salt.

Data set [1] can be described thus: Hygroscopicity test (K.F. water content under various humidity). The format is physicochemical. The settings on record: 25° C.; for hygroscopicity (in words): various humidity conditions.
The nature of data set [2]: Thermal stability in solid state, acceleration test at 60° C. (HPLC content). The class given is physicochemical. As to the method:
(§1) <HPLC Analysis Condition> • Detector: UV absorbance (at 237 nm), • Column: Octadecyl silica gel C18 (4.6 mm×150 mm, 5[…]), • mobile phase: Potassium dihydrogen phosphate monobasic (0.03 M): Methanol=4:6 (by volume) • Flow rate: 1.5 ml/min.

Data set [3] can be described thus: Thermal stability in liquid state (distilled water, 25° C., dark, 4 weeks). The format is physicochemical. Conditions: dissolved in distilled water, 4 weeks at 25° C. in the dark. As for the experimental part: as §1
The observation was made under the same conditions as in the HPLC analysis for evaluating the thermal stability of samples in a solid state.

A short description of data set [4]: Photostability test (ICH photostable chamber, 25° C., 4 weeks, HPLC content). The format is physicochemical. Conditions: 4 weeks at 25° C., light source. As to the method:
as §1
An observation was made of content (HPLC) change under the same conditions as in the HPLC analysis for evaluating the thermal stability of samples.

The nature of data set [5]: physchem. Conditions: 25 °C.

As to `CCOC(=O)C1=C(COCCN)NC(C)=C(C(=O)OC)C1c1ccccc1Cl.O=C(O)CCCCC(=O)O` (racemic) [C. Ex. 2, crystalline racemic amlodipine adipic acid salt anhydrous, reference compound], the “water content (K.F. moisture %)” value is listed as 0.10% in data set [1] (25% RH, Post 1 Week); 0.09% in data set [1] (60% RH, Post 1 Week); 0.15% in data set [1] (75% RH, Post 1 Week); 0.17% in data set [1] (95% RH, Post 1 Week); 0.10% in data set [1] (Initial). Moreover, the “hygroscopicity (in words)” value in data set [1] is recorded as “no hygroscopicity”. Further, the “content change in 60° C. acceleration test (in words)” value in data set [2] is given as “little change in content”. Besides, the “content change in liquid state (in words)” value in data set [3] was “no significant content changes”.
For the compound `CCOC(=O)C1=C(COCCN)NC(C)=C(C(=O)OC)[C@@H]1c1ccccc1Cl.CCOC(=O)C1=C(COCCN)NC(C)=C(C(=O)OC)[C@@H]1c1ccccc1Cl.O.O.O.O.O.O=S(=O)(O)c1ccccc1.O=S(=O)(O)c1ccccc1` [C. Ex. 1, S-(−)-amlodipine besylate 2.5 hydrate, reference compound], the “water content (K.F. moisture %)” value in data set [1] (25% RH, Post 1 Week) is 7.55%; in data set [1] (60% RH, Post 1 Week), 7.6%; in data set [1] (75% RH, Post 1 Week), 7.85%; in data set [1] (95% RH, Post 1 Week), 7.9%; in data set [1] (Initial), 7.8%. Also, the “hygroscopicity (in words)” value in data set [1] was “high in water content from the beginning”. Further, in data set [2], the “content change in 60° C. acceleration test (in words)” value is “little change in content”. The “content change in liquid state (in words)” value in data set [3] is “no significant content changes”. The “appearance on light exposure” value in data set [4] is “turned yellow from white”.
Usually solubility stands for the dissolved amount per volume that the medium holds. Read a low solubility as a poorly soluble substance. Take `CCOC(=O)C1=C(COCCN)NC(C)=C(C(=O)OC)[C@@H]1c1ccccc1Cl` [Ex. 1, crystalline S-(−)-amlodipine adipic acid salt anhydrous]: the solubility is 81.7 mg/mL in data set [5] (pH 1.2, simulated gastric fluid); 57.1 mg/mL in data set [5] (pH 4, aqueous buffer); 41.3 mg/mL in data set [5] (pH 6.8, aqueous buffer); 18.6 mg/mL in data set [5] (water). Further, the “water content (K.F. moisture %)” value amounted to 0.15% in data set [1] (25% RH, Post 1 Week); 0.15% in data set [1] (60% RH, Post 1 Week); 0.14% in data set [1] (75% RH, Post 1 Week); 0.16% in data set [1] (95% RH, Post 1 Week); 0.15% in data set [1] (Initial). Moreover, the “hygroscopicity (in words)” value in data set [1] is “no hygroscopicity”. The “content change in 60° C. acceleration test (in words)” value in data set [2] is recorded as “little change in content”. Further, the “content change in liquid state (in words)” value in data set [3] is given as “no significant content changes”.
With `CCOC(=O)C1=C(COCCN)NC(C)=C(C(=O)OC)[C@@H]1c1ccccc1Cl` [Ex. 2, hygroscopic crystalline S-(−)-amlodipine adipic acid salt anhydrous], the “water content (K.F. moisture %)” value was determined as 0.8% in data set [1] (25% RH, Post 1 Week); 0.9% in data set [1] (60% RH, Post 1 Week); 1.3% in data set [1] (75% RH, Post 1 Week); 1.62% in data set [1] (95% RH, Post 1 Week); 1.62% in data set [1] (95% RH, Post 1 Week, listed as Example 2); 0.7% in data set [1] (Initial).
